Blank lines part the entries; values can stand above or below the compound they belong to.
Columns and labels:
Assay type in all cases: physicochemical
[1] = EPR and CV modelling studies of redox equilibria (comproportionation, π-dimerisation); conditions: for Kc from CV: comproportionation equilibrium constant from CV curve fitting; for Kd: equilibrium constant of π-dimerisation of singly reduced form, estimated at 50% SOC; for Kc, obs from EPR: observed comproportionation equilibrium constant, fit of spin counting radical fraction
Protocol: An analysis of compounds 10, 11, and 13 associated redox equilibria was carried out. Expressing the two single electron reductions as a comproportionation equilibrium with an equilibrium constant of comproportionation, Kc, an equation for radical fraction as a function of battery SOC was obtained.
The difference between redox events is related to the comproportionation equilibrium constant Kc by:
For the compounds comproportionation equilibrium:
fits to experimental radical concentration data were obtained by:
Where n is the number of electrons that have been removed from the system, starting from 100% SOC and x is the fraction of radicals.
For π-dimerisation equilibria, Kd values were estimated as follows. At 50% SOC, 1 electron equivalent of the starting concentration of viologen, V0, has been added to create reduced species, thus giving the previous result:
As the initial concentration (V0), Kc and the radical concentration (V^3+·) at this state of charge is known, the dimerisation constant can be calculated with:
This equation was used to fit experimental radical fraction data obtained by the EPR-based method of spin counting, from which the observed comproportionation equilibrium constant Kc,obs was extracted. Upon fitting, Kc,obs values of 0.75, 0.021 and 0.0021 were found for 10, 11, and 13, respectively (Table 2).
The equation was also used for CV curve fitting, from which much better agreement with experimental data was obtained. Relating the difference in first and second redox events obtained by CV curve fitting to Kc, ‘true’ Kc values could be estimated and compared to Kc,obs values. Respective Ko values for 10, 11, and 13 were 3.2×10^5, 1.3 and 2.9 (see Table 2)—substantially higher than the Kc,obs values. […] The strongest candidates for these are dimerisation equilibria.

[2] = Cyclic voltammetry in N2 purged 0.1 M NaCl aqueous solutions; conditions: 1 mM
Protocol: Cyclic voltammetry experiments were carried out at 25° C. in N2 purged 0.1 M NaCl aqueous solutions with a Metrohm Eco Chemie Autolab PGSTAT12 potentiostat, working on GPES 4.9 software. A three-electrode configuration was used with a 3 mm or 1.6 mm glassy carbon working electrode, a platinum counter electrode, and RE-5B Ag/AgCl BASI reference electrode. The glassy carbon electrode was polished before each measurement using a 0.05 μm alumina-H2O slurry on a polishing cloth. CV was performed at 1 mM concentrations of the respective compound using a scan rate of 20 mV s^−1.

[3] = In situ DOSY NMR of flowing electrolyte at various SOCs; conditions: diffusivity
Protocol: Pseudo-2D NMR experiments were performed on the flowing electrolyte solution by direct excitation with a 90° radiofrequency pulse. Each NMR spectrum is acquired by collecting eight free induction decays with a recycle delay of 15 s. The pulse width for a 90° pulse was 27 μs at 30 W. All spectra were referenced to the water chemical shift at 4.79 ppm. NMR data were processed using TopSpin 3.6.3 (Bruker). EPR data were processed using EasySpin version 5.2.30. Electrochemical data were processed using EC-lab 11.36 (BioLogic).
The flow was stopped during the acquisition period (12 min) to carry out the DOSY NMR.
In situ DOSY NMR experiments carried out for 10, 11, and 13 at 0%, 50%, and 100% SOC (Table 1).

[4] = Rates of electron transfer
[5] = Additional cyclic voltammetry under nitrogen and under air; conditions: 1 mM, 0.1 M NaCl
Protocol: Cyclic voltammetry experiments were carried out for aqueous solutions of compound 20 and 10 at 25° C. and a concentration of 1 mM in 0.1 M NaCl with a Metrohm Eco Chemie Autolab PGSTAT12 potentiostat, working on GPES 4.9 software. Where the CV was carried out under nitrogen the solution was purged with nitrogen. A three-electrode configuration was used with a 3 mm glassy carbon working electrode, a platinum counter electrode, and RE-5B Ag/AgCl BASI reference electrode. The glassy carbon electrode was polished before each measurement using a 0.05 μm alumina-H2O slurry on a polishing cloth. CV was performed using a scan rate of 20 mV s^−1.

SMILES: C[N+](C)(C)CCC[n+]1ccc(-c2cc[n+](CCC[N+](C)(C)C)cc2)cc1 [Compound 10]
average Kc extracted from the radical concentration [1]: 0.7
Kc from CV [1]: 3.2×10^5
Kd [1]: 0.28 mM⁻¹
Kc, obs from EPR [1]: 0.75
redox reversibility by cyclic voltammetry [2]: reversible redox processes
reversible potential, first reduction ([2]; vs SHE, 25° C., 20 mV s^−1): −0.35 V
reversible potential, second reduction ([2]; vs SHE, 25° C., 20 mV s^−1): −0.68 V
D at 0% SOC [3]: 3.6 ± 0.1 ×10^−10 m^2 s^−1
D at 50% SOC [3]: 3.6 ± 0.2 ×10^−10 m^2 s^−1
D at 100% SOC [3]: 3.4 ± 0.1 ×10^−10 m^2 s^−1

SMILES: C[N+](C)(C)CCC[n+]1ccc(-c2ccc(-c3cc[n+](CCC[N+](C)(C)C)cc3)cc2)cc1 [Compound 11]
rate of electron transfer k0 [4]: 0.0198 cm/s
average Kc extracted from the radical concentration [1]: 0.2
Kc from CV [1]: 1.3
Kd [1]: 11 mM⁻¹
Kc, obs from EPR [1]: 0.021
redox reversibility by cyclic voltammetry [2]: reversible redox processes
D at 0% SOC [3]: 3.1 ± 0.1 ×10^−10 m^2 s^−1
D at 50% SOC [3]: 2.4 ± 0.2 ×10^−10 m^2 s^−1
D at 100% SOC [3]: 1.6 ± 0.1 ×10^−10 m^2 s^−1

SMILES: C[N+](C)(C)CCC[n+]1ccc(-c2ccc3ccc(-c4cc[n+](CCC[N+](C)(C)C)cc4)cc3c2)cc1 [Compound 14]
redox reversibility by cyclic voltammetry [2]: does not have a reversible potential

SMILES: C[N+](C)(C)c1ccc(-[n+]2ccc(-c3cc[n+](-c4ccc([N+](C)(C)C)cc4)cc3)cc2)cc1 [Compound 20]
tolerance to oxygen (voltammogram under nitrogen vs under air) [5]: highly tolerant to the presence of oxygen
reversible reduction potential, first ([5]; vs SHE, 25° C., 20 mV s^−1): −0.147 V
reversible reduction potential, second ([5]; vs SHE, 25° C., 20 mV s^−1): −0.386 V

SMILES: O=O [Compound O2, dioxygen]
rate of electron transfer k0 [4]: 0.00084 cm/s

Continued, in another order:

redox reversibility by cyclic voltammetry [2]: reversible redox processes
SMILES: C[N+](C)(C)CCC[n+]1ccc(-c2ccc(-c3cc[n+](CCC[N+](C)(C)C)cc3)c3ccccc23)cc1 [Compound 12]

average Kc extracted from the radical concentration [1]: 0.002
Kc from CV [1]: 2.9
Kd [1]: 76 mM⁻¹
Kc, obs from EPR [1]: 0.0021
redox reversibility by cyclic voltammetry [2]: reversible redox processes
D at 0% SOC [3]: 2.8 ± 0.1 ×10^−10 m^2 s^−1
D at 50% SOC [3]: 1.9 ± 0.2 ×10^−10 m^2 s^−1
D at 100% SOC [3]: 2.1 ± 0.5 ×10^−10 m^2 s^−1
SMILES: C[N+](C)(C)CCC[n+]1ccc(-c2ccc3cc(-c4cc[n+](CCC[N+](C)(C)C)cc4)ccc3c2)cc1 [Compound 13]

redox reversibility by cyclic voltammetry [2]: electrochemically irreversible
SMILES: C[N+](C)(C)CCC[n+]1ccc(-c2c3ccccc3c(-c3cc[n+](CCC[N+](C)(C)C)cc3)c3ccccc23)cc1 [Compound 15]

redox reversibility by cyclic voltammetry [2]: electrochemically irreversible
SMILES: C[N+](C)(C)CCC[n+]1ccc(-c2ccc(-c3ccc(-c4cc[n+](CCC[N+](C)(C)C)cc4)cc3)cc2)cc1 [Compound 16]

redox reversibility by cyclic voltammetry [2]: reversible redox processes
reversible potential, second reduction ([2]; vs SHE, 25° C., 20 mV s^−1): −0.67 V
SMILES: C[N+](C)(C)CCC[n+]1ccc(-c2ccc(-c3cc[n+](CCC[N+](C)(C)C)cc3)s2)cc1 [Compound 17]
rate of electron transfer k0 [4]: 0.0028 cm/s

redox reversibility by cyclic voltammetry [2]: reversible redox processes
SMILES: C[N+](C)(C)CCC[n+]1ccc(-c2ccc(-c3ccc(-c4cc[n+](CCC[N+](C)(C)C)cc4)s3)s2)cc1 [Compound 18]

redox reversibility by cyclic voltammetry [2]: does not have a reversible potential
SMILES: C[N+](C)(C)CCC[n+]1ccc(-c2cccc(-c3cc[n+](CCC[N+](C)(C)C)cc3)n2)cc1 [Compound 19]
